Data on 29 compounds can be found in patent US20160052898A1, “NOVEL COMPOUNDS” (BAYER PHARMA AKTIENGESELLSCHAFT, priority 2013, published 2016).

The subject of assay [1] is constitutive active colorectal cancer cell (CRC) Wnt pathway. The assay can be described thus: HCT116 Super TopFlash cellular reporter assay (constitutive active Wnt pathway). The conditions noted are these: HCT116 TOP reporter cells, luciferase expression, 36 hours incubation, 50 μM to 15 nM. Format: cell-based. The method, boiled down:
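Luciferase luminescence served as the Wnt read-out after 36 h of compound treatment at 37 °C. Compound came from a pre-dilution series (50 μM down to 15 nM, 3.16-fold steps) in CAFTY buffer. Cells were stable HCT116 TOP reporter cells, with matched FOP-vector control cells tested in parallel, seeded a day earlier.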

For assay [2], the system named is HCT116 FOP control reporter cell line. As to the kind of experiment: HCT116 FOP control vector reporter assay (non-functional TCF elements). Format: cell-based. To be noted: HCT116 FOP control reporter cells, luciferase expression, 36 hours incubation, 50 μM to 15 nM, read-out: HCT116 FOPFlash IC50. The method, boiled down:
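Stable HCT116 line carrying the non-functional FOP luciferase construct, 10000 cells/well plated 24 hrs before. Compounds 50 μM to 15 nM (3.16-fold steps) in CAFTY buffer pH 7.4 with 2 mM Ca2+, 36 hours at 37° C; luciferase luminescence read.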

pIC50: −log10 of the molar value. Like-named read-outs stand apart in the source and are kept apart here.

As to `COCCNCC(=O)Nc1cc(NC(=O)c2ccc(-c3ccccc3)cc2)ccc1OC(F)(F)F` [Example 130, N-[3-{[N-(2-methoxyethyl)glycyl]amino} -4-(trifluoromethoxy)phenyl] biphenyl-4-carboxamide], the pIC50 in assay [1] (Homo sapiens, HCT-116, 36 h) is 6.61; in assay [2] (Homo sapiens, HCT-116, 36 h), 4.55.
As to `COc1ccc(C(=O)Nc2ccc(-c3ccccc3)cc2)cc1NC(=O)C1(N2CCN(C)CC2)CC1` [Example 133, N-(biphenyl-4-yl)-4-methoxy-3-({[1-(4-methylpiperazin-1-yl)cyclopropyl]carbonyl}amino)benzamide], the pIC50 in assay [1] was 6.44; in assay [2], 4.52.
For the compound `COc1c(F)cc(C(=O)Nc2ccc(-c3ccccc3)cc2)cc1NC(=O)CN1CCOCC1` [Example 134, N-(biphenyl-4-yl)-3-fluoro-4-methoxy-5-[(morpholin-4-ylacetyl)amino]benzamide], the pIC50 was 6.40 in assay [1] (Homo sapiens, HCT-116, 36 h) and at most 4.30 in assay [2] (Homo sapiens, HCT-116, 36 h).
Regarding `NC(C(=O)Nc1cc(NC(=O)c2ccc(-c3ccccc3)cc2)ccc1OC(F)(F)F)C(F)(F)F` (stereo not shown) [Example 135, N-{3-[(333-trifluoroalanyl)amino]-4-[trifluoromethoxy)phenyl) biphenyl-4-carboxamide], the pIC50 was 6.23 in assay [1] (Homo sapiens, HCT-116, 36 h) and at most 4.30 in assay [2] (Homo sapiens, HCT-116, 36 h).
The corresponding values for `COc1c(Cl)cc(C(=O)Nc2ccc(-c3ccccc3)cc2)cc1NC(=O)CN1CCOCC1` [Example 136, N-(biphenyl-4-yl)-3-chloro-4-methoxy-5-[(morpholin-4-ylacetyl]amino]benzamide] are 6.12 and 4.41.
As to `COc1ccc(C(=O)Nc2ccc(-c3ccccc3)cc2)cc1NC(=O)[C@@H](C(C)C)N1CCOCC1` [Example 137, N-(biphenyl-4-yl)-4-methoxy-3-{[(2R)-3-methyl-2-(morpholin-4-yl)butanoyl]amino} benzamide], the pIC50 is 6.03 in assay [1] (Homo sapiens, HCT-116, 36 h) and 4.48 in assay [2] (Homo sapiens, HCT-116, 36 h).
The matching figures for `COc1ccc(NC(=O)c2ccc(-c3ccccc3)cc2)cc1NC(=O)Cc1ccc(F)cc1` [Example 138, N-(3-{[(4-fluorophenyl)acetyl]amino}-4-methoxyphenyl)biphenyl-4-carboxamide]: 5.92 and at most 4.30.
The matching figures for `CC(CN1CCOCC1)C(=O)Nc1cc(C(=O)Nc2ccc(-c3ccccc3)cc2)ccc1C(F)(F)F` (stereo not shown) [Example 139, N-(biphenyl-4-yl)-3-{[2-methyl-3-(morpholin-4-yl)propanoyl]amino}-4-(trifluoromethyl)benzamide]: 5.84 and at most 4.30.
The matching figures for `O=C(CNCCO)Nc1cc(NC(=O)c2ccc(-c3ccccc3)cc2)ccc1OC(F)(F)F` [Example 140, N-[3-{[N-(2-hydroxyethyl)glycyl]amino}-4-(trifluoromethoxy)phenyl] biphenyl-4-carboxamide]: 5.77 and 4.60.
With `COc1ccc(NC(=O)c2ccc(-c3ccccc3)cc2)cc1NC(=O)CCN1CCOCC1` [Example 141, N-(4-methoxy-3-{[3-(morpholin-4-yl)propanoyl]amino}phenyl) biphenyl-4-carboxamide], the pIC50 in assay [1] (Homo sapiens, HCT-116, 36 h) is 5.60; in assay [2] (Homo sapiens, HCT-116, 36 h), at most 4.30.
`COc1ccc(NC(=O)c2ccc(-c3ccccc3)cc2)cc1NC(=O)Cc1cccc(F)c1` [Example 142, N-(3-{[(3-fluorophenyl)acetyl]amino}-4-methoxyphenyl)biphenyl-4-carboxamide]: the pIC50 was 5.55 in assay [1] (Homo sapiens, HCT-116, 36 h) and at most 4.30 in assay [2] (Homo sapiens, HCT-116, 36 h).
In the case of `COc1cccc(CC(=O)Nc2cc(NC(=O)c3ccc(-c4ccccc4)cc3)ccc2OC)c1` [Example 143, N-(4-methoxy-3-{[(3-methoxyphenyl}acetyl]amino}phenyl)biphenyl-4-carboxamide], the negative-log IC50 (pIC50) is 5.48 in assay [1] (Homo sapiens, HCT-116, 36 h) and at most 4.30 in assay [2] (Homo sapiens, HCT-116, 36 h).
Turning to `COc1ccc(CC(=O)Nc2cc(NC(=O)c3ccc(-c4ccccc4)cc3)ccc2OC)cc1` [Example 144, N-(4-methoxy-3-{[(4-methoxyphenyl)acetyl]amino}phenyl)biphenyl-4-carboxamide], the pIC50 in assay [1] (Homo sapiens, HCT-116, 36 h) was 5.41; in assay [2] (Homo sapiens, HCT-116, 36 h), at most 4.30.
The matching figures for `COc1ccc(NC(=O)c2ccc(-c3ccccc3)cc2)cc1NC(=O)CC1CCCCC1` [Example 145, N-{3-((cyclohexylacetyl)amino]-4-methoxyphenyl}biphenyl-4-carboxamide]: 5.32 and at most 4.30.
The matching figures for `COC(=O)c1ccc(C(=O)Nc2ccc(-c3ccccc3)cc2)cc1NC(=O)C1(N2CCOCC2)CC1` [Example 147, methyl 4-(biphenyl-4-ylcarbamoyl)-2-({[1-(morpholin-4-yl)cyclopropyl]carbonyl}amino)benzoate]: 7.99 and at most 4.30.
The corresponding values for `O=C(Nc1ccc(OC(F)(F)F)c(NC(=O)C2(N3CCOCC3)CC2)c1)c1ccc(-c2ccccc2)cc1` [Example 148, N-[3-({[1-(morpholin-4-yl)cyclopropyl]carbonyl}amino)-4-(trifluoromethoxy)phenyl] biphenyl-4-carboxamide] are 7.91 and at most 4.30.
For the compound `COCc1ccc(C(=O)Nc2ccc(-c3ccccc3)cc2)cc1NC(=O)C1(N2CCN(C3CC3)CC2)CC1` [Example 149, N-(biphenyl-4-yl)-3-({[1-(4-cyclopropylpiperazin-1-yl)cyclopropyl]carbonyl}amino)-4-(methoxymethyl)benzamide], the negative-log IC50 (pIC50) is 7.88 in assay [1] (Homo sapiens, HCT-116, 36 h) and 4.82 in assay [2] (Homo sapiens, HCT-116, 36 h).
The corresponding values for `COc1ccc(NC(=O)c2ccc(-c3ccccc3)cc2)cc1NC(=O)C1(N2CCOCC2)CC1` [Example 150, N-[4-methoxy-3-({[1-(morpholin-4-yl)cyclopropyl]carbonyl}amino)phenyl]biphenyl-4-carboxamide] are 7.58 and at most 4.30.
The corresponding values for `O=C(Nc1ccc(-c2ccccc2)cc1)c1ccc(F)c(NC(=O)C2(N3CCOCC3)CC2)c1` [Example 151, N-(biphenyl-4-yl)-4-fluoro-3-({[1-(morpholin-4-yl)cyclopropyl]carbonyl}amino)benzamide] are 7.55 and at most 4.30.
The corresponding values for `O=C(Nc1ccc(-c2ccccc2)cc1)c1ccc(Br)c(NC(=O)C2(N3CCOCC3)CC2)c1` [Example 152, N-(biphenyl-4-yl)-4-bromo-3-({[1-(morpholin-4-yl)cyclopropyl]carbonyl}amino)benzamide] are 7.47 and 4.54.
With `COc1ccc(C(=O)Nc2ccc(-c3ccccc3)cc2)cc1NC(=O)[C@@H](C)N1CCOCC1` [Example 153, N-(biphenyl-4-yl)-4-methoxy-3-{[(2R)-2-(morpholin-4-yl)propanoyl]amino} benzamide], the negative-log IC50 (pIC50) in assay [1] (Homo sapiens, HCT-116, 36 h) was 7.36; in assay [2] (Homo sapiens, HCT-116, 36 h), at most 4.30.
Turning to `COCc1ccc(C(=O)Nc2ccc(-c3ccccc3)cc2)cc1NC(=O)CN1CC2CCC(C1)O2` [Example 154, N-(biphenyl-4-yl)-4-(methoxymethyl)-3-[(8-oxa-3-azabicyclo[3.2.1]oct-3-ylacetyl)amino]benzamide], the negative logarithm of the IC50 (pIC50) was 7.32 in assay [1] (Homo sapiens, HCT-116, 36 h) and 4.37 in assay [2] (Homo sapiens, HCT-116, 36 h).
The matching figures for `CC(C)NC(=O)c1ccc(C(=O)Nc2ccc(-c3ccccc3)cc2)cc1NC(=O)CN1CCOCC1` [Example 155, N^4-(biphenyl-4-yl)-2-[(morpholin-4-ylacetyl)amino]-N^1-(propan-2-yl)benzene-1,4-dicarboxamide]: 7.30 and at most 4.30.
The matching figures for `COc1ccc(C(=O)Nc2ccc(-c3ccccc3)cc2)cc1NC(=O)C1(N2CCN(C3CC3)CC2)CC1` [Example 156, N-(biphenyl-4-yl)-3-({[1-(4-cyclopropylpiperazin-1-yl)cyclopropyl)carbonyl}amino)-4-methoxybenzamide]: 7.28 and at most 4.30.
The corresponding values for `COCc1ccc(C(=O)Nc2ccc(-c3ccccc3)cc2)cc1NC(=O)C(C)N1CCOCC1` (stereo not shown) [Example 157, N-(biphenyl-4-yl)-4-(methoxymethyl)-3-{[2-(morpholin-4-yl)propanoyl)amino} benzamide] are 7.22 and 4.36.
As for `COCc1ccc(C(=O)Nc2ccc(-c3ccccc3)cc2)cc1NC(=O)C1(N(C)C)CC1` [Example 158], the negative logarithm of the IC50 (pIC50) was 7.20 in assay [1] (Homo sapiens, HCT-116, 36 h) and at most 4.30 in assay [2] (Homo sapiens, HCT-116, 36 h).
The corresponding values for `Cc1ccc(C(=O)Nc2ccc(-c3ccccc3)cc2)cc1NC(=O)C1(N2CCOCC2)CC1` [Example 159, N-(biphenyl-4-yl)-4-methyl-3-({[1-(morpholin-4-yl)cyclopropyl)carbonyl}amino)benzamide] are 7.15 and at most 4.30.
As for `COCCCOCc1ccc(C(=O)Nc2ccc(-c3ccccc3)cc2)cc1NC(=O)C(C)N1CCOCC1` (stereo not shown) [Example 160, N-(biphenyl-4-yl)-4-[(3-methoxypropoxy)methyl]-3-([2-(morpholin-4-yl)propanoyl]amino} benzamide], the pIC50 in assay [1] (Homo sapiens, HCT-116, 36 h) is 7.10; in assay [2] (Homo sapiens, HCT-116, 36 h), 4.52.
The matching figures for `CC(C(=O)Nc1cc(NC(=O)c2ccc(-c3ccccc3)cc2)ccc1C(F)(F)F)N1CCOCC1` (stereo not shown) [Example 161, N-[3-{[2-(morpholin-4-yl)propanoyl]amino}-4-(trifluoromethyl)phenyl] biphenyl-4-carboxamide]: 7.01 and at most 4.30.
